Our source for the IC50 values is US11192865B2, “Benzosulfonyl compounds” (Vivace Therapeutics, Inc., priority 2017, dated 2021).

A value given as a limit tells only on which side of the number the result lay.

The subject of the test is 8XTBD luciferase reporter. Description: YAP Reporter Assay. The settings on record: Homo sapiens, HEK-293T; HEK293T cells stably transfected with 8XTBD luciferase reporter and pRLTK; 24-hr incubation; starting from 3 μM, 1:3 dilution, 10 points; read-out: Firefly Luciferase IC50. Type of test: cell-based. As for the experimental part:
HEK293T cells stably transfected with 8XTBD luciferase reporter and pRLTK in 384-well plates were treated with the test compounds, starting from 3 μM (final concentration in assay plate), 1:3 dilution, and 10 points in quadruplicates. Post 24-hr incubation with compounds at 37° C. and 5% CO2, cells were lysed and 8XTBD-driven firefly luciferase and control TK-driven renilla luciferase activities were measured using Promega Dual-Luciferase Reporter Assay System.
Reagents: The reagents used for this study are: DMEM: Invitrogen #11960077, Dual-Glo Luciferase Assay System: Promega-E2980, Puromycin Dihydrochloride: Invitrogen-A1113803, 384-well plate: PerkinElmer-6007480, L-GLUTAMINE: Invitrogen-25030164, Hygromycin B: Invitrogen-10687010, and Penicillin-Streptomycin: Merk-TMS-AB2-C
Media: The media used for this assay were: Culture Medium: DMEM+1 ug/mL puromycin+200 ug/mL hygromycin (with 10% FBS+1 mM L-glutamine); and Assay Medium: DMEM (with 10% FBS+1 mM L-glutamine+1×P/S).
Cell Plating: The appropriate media was warmed at 37° C. by water bath: Culture Medium, Assay Medium, 1* D-PBS, 0.05% trypsin-EDTA. The cells were trypsinized after removing all media, then washed with 1* sterile D-PBS and then with 2 ml 0.05% trypsin-EDTA. The cells were then incubated at RT for one minute. Then 10 ml/75 cm2 flask Assay Medium was added to each flask. Using a 10 ml pipette, the cells were then gently resuspended in the media, until the clumps completely disappeared. The cells were then transferred into 50 ml centrifuge tubes and were centrifuged at 800 rpm for 5 mins. The medium was removed and the cells were resuspended with Assay Medium. An aliquot of cells was used to count the cell density (cells/ml). The cell suspension was then diluted with Assay Medium to a concentration of 6×10^4 cells/ml. 50 ul cells suspension was then plated to 384-well plate (PerkinElmer-6007480), 3×10^3 cells/well and the cells were incubated in an incubator at 37° C., 5% CO2.
Compound Treatment: In the afternoon (incubation of the plate with 3-4 hrs), the test compounds were added by Echo, starting from 3 uM (final concentration in the assay plate), 1:3 dilution, 10 points, quadruplicates. The plate was placed at 37° C., 5% CO2 incubator for 24 hrs.
Detection: The Dual-Glo Luciferase Reagent was prepared by transferring the contents of one bottle of Dual-Glo Luciferase Buffer to one bottle of Dual-Glo Luciferase Substrate to create the Dual-Glo Luciferase Reagent. Mixing was performed by inversion until the substrate was thoroughly dissolved. After mixing, the reagent was aliquoted into 15 ml tubes. In the afternoon (24 hrs post compound treatment), the DMEM+ medium in the 384 well plates were aspirated by Microplate Washer.
Measuring firefly luciferase activity: 20 ul Dual-Glo Luciferase Reagent was added to the 384-well plates. The plates were protected from light to prevent interference with the assay. The plates were shaken for 1 min followed centrifuging plates at 1000 rpm for 30 seconds. After waiting at least 10 minutes, the firefly luminescence was measured by Envision.
Measuring renilla luciferase activity: 20 ul Stop-Glo Reagent was added to the 384-well plates. The plates were shaken for 1 min and then centrifuged at 1000 rpm for 30 seconds. After waiting at least 10 minutes, the renilla luminescence was measured by Envision.
Compound IC50 and maximum inhibition on the firefly luciferase and renilla luciferase activities were reported separately.
For orientation: Reporter assays use an easily measured gene product as a stand-in for the process of interest.
`CS(=O)(=O)c1ccc(NC2CCCCC2)c(-c2nn[nH]n2)c1` [Compound 4, N-cyclohexyl-4-(methylsulfonyl)-2-(2H-tetrazol-5-yl)aniline]: the half-inhibitory concentration (IC50) (as a rule, the point on the concentration scale where inhibition reaches its midpoint) was above 3 µM.
`CS(=O)(=O)c1ccc(NC2CCCCC2)c(-n2cncn2)c1` [Compound 12, N-cyclohexyl-4-(methylsulfonyl)-2-(1H-1,2,4-triazol-1-yl)aniline]: the half-maximal inhibitory concentration (IC50) was above 3 µM.
For `CNS(=O)(=O)c1ccc(Nc2cccc(F)c2F)c(-c2nnn(C)n2)c1` [Compound 104, 4-((2,3-difluorophenyl)amino)-N-methyl-3-(2-methyl-2H-tetrazol-5-yl)benzenesulfonamide] the value was 0.1 to 1 µM; for `CNS(=O)(=O)c1ccc(NC2CCCCC2)c(-n2nccn2)c1` [Compound 81, 4-(Cyclohexylamino)-N-methyl-3-(2H-1,2,3-triazol-2-yl)benzenesulfonamide], at most 0.1 µM.
For `CNS(=O)(=O)c1ccc(NC2CCCCC2)c(-c2nnn(C3CCCN(C(C)=O)C3)n2)c1` (stereo not shown) [Compound 53, 3-(2-(1-acetylpiperidin-3-yl)-2H-tetrazol-5-yl)-4-(cyclohexylamino)-N-methylbenzenesulfonamide] the value was 0.1 to 1 µM.
For `CNS(=O)(=O)c1ccc(NC2CCCCC2)c(-n2ccnn2)c1` [Compound 89, 4-(cyclohexylamino)-N-methyl-3-(1H-1,2,3-triazol-1-yl)benzenesulfonamide] the value was above 3 µM; for `CCn1nnc(-c2cc(S(=O)(=O)NC)ccc2NC2CCCCC2)n1` [Compound 14, 4-(cyclohexylamino)-3-(2-ethyl-2H-tetrazol-5-yl)-N-methylbenzenesulfonamide], at most 0.1 µM.
Consider `CC(C)(C)NS(=O)(=O)c1ccc(NC2CCCCC2)c(-c2nnn(CCO)n2)c1` [Compound 2, N-(tert-butyl)-4-(cyclohexylamino)-3-(2-(2-hydroxyethyl)-2H-tetrazol-5-yl)benzenesulfonamide], for which the 50% inhibitory concentration (IC50) is above 3 µM.
Under `CNS(=O)(=O)c1ccc(NC2CCCCC2)c(-c2nnn(C3CCC3)n2)c1` [Compound 17, 3-(2-cyclobutyl-2H-tetrazol-5-yl)-4-(cyclohexylamino)-N-methylbenzene sulfonamide] stands at most 0.1 µM; under `Cc1nc(-c2cc(S(C)(=O)=O)ccc2NC2CCCCC2)no1` [Compound 3, N-cyclohexyl-2-(5-methyl-1,2,4-oxadiazol-3-yl)-4-(methylsulfonyl)aniline], at most 0.1 µM.
Under `CNS(=O)(=O)c1ccc(Nc2cccc(C(F)(F)F)c2)c(-c2nnnn2C)c1` [Compound 97, N-methyl-3-(1-methyl-1H-tetrazol-5-yl)-4-((3-(trifluoromethyl)phenyl)amino)benzenesulfonamide] stands above 3 µM; under `CNS(=O)(=O)c1ccc(NC2CCCCC2)c(-c2nnn(C3CCCNC3)n2)c1` (stereo not shown) [Compound 74, 4-(cyclohexylamino)-N-methyl-3-(2-(piperidin-3-yl)-2H-tetrazol-5-yl)benzenesulfonamide], 0.1 to 1 µM.
Under `CNS(=O)(=O)c1ccc(Nc2ccc(Cl)cc2)c(-c2cn(C)cn2)c1` [Compound 139, 4-(4-chloroanilino)-N-methyl-3-(1-methylimidazol-4-yl)benzenesulfonamide] stands at most 0.1 µM; under `CNS(=O)(=O)c1ccc(NC2CCCCC2)c(-c2cn(C)cn2)c1` [Compound 82, 4-(cyclohexylamino)-N-methyl-3-(1-methyl-1H-imidazol-4-yl)benzenesulfonamide], at most 0.1 µM; under `CCCCn1nnc(-c2cc(S(=O)(=O)NC)ccc2NC2CCCCC2)n1` [Compound 21, 3-(2-butyltetrazol-5-yl)-4-(cyclohexylamino)-N-methyl-benzenesulfonamide], at most 0.1 µM.
For `CNS(=O)(=O)c1ccc(Nc2ccc(Cl)c(Cl)c2)c(-c2cn(C)cn2)c1` [Compound 140, 4-(3,4-dichloroanilino)-N-methyl-3-(1-methylimidazol-4-yl)benzenesulfonamide], the IC50 is at most 0.1 µM.
Consider `CNS(=O)(=O)c1ccc(NC2CCCCC2)c(-c2nnn(C3CCNC3)n2)c1` (stereo not shown) [Compound 35, 4-(cyclohexylamino)-N-methyl-3-(2-(pyrrolidin-3-yl)-2H-tetrazol-5-yl)benzenesulfonamide], for which the half-maximal inhibitory concentration (IC50) was above 3 µM.
For `CNS(=O)(=O)c1ccc(NC2CCCCC2)c(-c2nnc(C)o2)c1` [Compound 105, 4-(cyclohexylamino)-N-methyl-3-(5-methyl-1,3,4-oxadiazol-2-yl)benzenesulfonamide] the value was at most 0.1 µM.
In the case of `CNS(=O)(=O)c1ccc(NC2CCCCC2)c(-c2nnn(CCO)n2)c1` [Compound 44, 4-(cyclohexylamino)-3-(2-(2-hydroxyethyl)-2H-tetrazol-5-yl)-N-methylbenzenesulfonamide], the concentration for half-maximal inhibition (IC50) lay in the range of 0.1 to 1 µM.
Under `CNS(=O)(=O)c1ccc(Nc2cc(F)ccc2F)c(-c2nnn(C)n2)c1` [Compound 110, 4-((2,5-difluorophenyl)amino)-N-methyl-3-(2-methyl-2H-tetrazol-5-yl)benzenesulfonamide] stands at most 0.1 µM.
Consider `CNS(=O)(=O)c1ccc(NC2CCCCC2)c(-c2nnn(CCF)n2)c1` [Compound 40, 4-(cyclohexylamino)-3-(2-(2-fluoroethyl)-2H-tetrazol-5-yl)-N-methylbenzenesulfonamide], for which the half-inhibitory concentration (IC50) was at most 0.1 µM.
For `CNS(=O)(=O)c1ccc(Nc2cccc(-c3ccccc3)c2)c(-c2nnn(C)n2)c1` [Compound 131, N-methyl-3-(2-methyltetrazol-5-yl)-4-(3-phenylanilino) benzenesulfonamide], the IC50 is at most 0.1 µM.
For `CNS(=O)(=O)c1ccc(NC2CCCCC2)c(-c2nnn(C3CCNCC3)n2)c1` [Compound 30, 4-(cyclohexylamino)-N-methyl-3-(2-(piperidin-4-yl)-2H-tetrazol-5-yl)benzenesulfonamide], the IC50 was above 3 µM.
`CNS(=O)(=O)c1ccc(NC2CCCCC2)c(-c2ncccc2F)c1` [Compound 79, 4-(cyclohexylamino)-3-(3-fluoropyridin-2-yl)-N-methylbenzenesulfonamide]: the IC50 is at most 0.1 µM.
Consider `CNS(=O)(=O)c1ccc(NC2CCCCC2)c(-c2cn(C(C)C)cn2)c1` [Compound 113, 4-(cyclohexylamino)-3-(1-isopropyl-1H-imidazol-4-yl)-N-methylbenzenesulfonamide], for which the IC50 is at most 0.1 µM.
Under `CNS(=O)(=O)c1ccc(Nc2ccc(OC(F)(F)F)cc2)c(-c2nnnn2C)c1` [Compound 99, N-methyl-3-(1-methyl-1H-tetrazol-5-yl)-4-((4-(trifluoromethoxy)phenyl)amino)benzenesulfonamide] stands above 3 µM; under `CNS(=O)(=O)c1ccc(Nc2ccccc2C(F)(F)F)c(-c2nnn(C)n2)c1` [Compound 93, N-methyl-3-(2-methyl-2H-tetrazol-5-yl)-4-((2-(trifluoromethyl)phenyl)amino)benzenesulfonamide], above 3 µM.
For `CNS(=O)(=O)c1ccc(NC2CCCCC2)c(-c2nnn(Cc3ccccc3F)n2)c1` [Compound 19, 4-(cyclohexylamino)-3-(2-(2-fluorobenzyl)-2H-tetrazol-5-yl)-N-methylbenzenesulfonamide] the value was at most 0.1 µM; for `CNS(=O)(=O)c1ccc(NC2CCCCC2)c(-c2nnn(C)n2)c1` [Compound 22, 4-(cyclohexylamino)-N-methyl-3-(2-methyl-2H-tetrazol-5-yl)benzenesulfonamide], at most 0.1 µM; for `CNS(=O)(=O)c1ccc(NC2CCCC(F)(F)C2)c(-c2nnn(C)n2)c1` (stereo not shown) [Compound 73, 4-((3,3-difluorocyclohexyl)amino)-N-methyl-3-(2-methyl-2H-tetrazol-5-yl)benzenesulfonamide], at most 0.1 µM.
Under `CNS(=O)(=O)c1ccc(NC2CCCCC2)c(-c2nnn(C3CCN(C(C)=O)C3)n2)c1` (stereo not shown) [Compound 42, 3-(2-(1-acetylpyrrolidin-3-yl)-2H-tetrazol-5-yl)-4-(cyclohexylamino)-N-methylbenzenesulfonamide] stands 0.1 to 1 µM.
